Like-named read-outs stand apart in the source and are kept apart here. No end group written: not given here.
Legend:
[1] = test system: Staphylococcus aureus (ATCC 25923); type: cell-based; details: for bactericidal activity (in words): Table 1
Procedure: (§1) FIGS. 2A-2C show antimicrobial activity of mucocidin. (A) The growth rate of E. coli (0.5×10^3) containing pBluescript SK plasmid with mucocidin cDNA insert and the control E. coli containing plasmid alone in 20 ml LB broth cultured for 5 days. Cell growth was monitored by Absorbance at 600 nm (A600). Induction of vector expression by 20 μL isopropyl-B-D-thiogalactopyranoside (IPTG 1 mM) is on the bottom line. Each point represents average of five experiments. (B) Bactericidal activity of synthetic mucocidin peptide was measured by the percent colony formation units of E. coli and Staphylococcus aureus. Cells (5×10^5) were cultured in 100 μL in IB broth containing 0, 5, 10, 20 μM concentration of mucocidin. After one hour, cell viability was determined by plating 300 μL aliquots of the 200 fold diluted cultured cell broth on LBA or TSA plates, respectively. […] (C) Scanning electron micrographs of E. coli, Staphylococcus aureus and Candida albicans incubated with 10, […] mucocidin, respectively for 10, 20 and 30 min, and they were immediately fixed with glutaraldehyde, dried on the Millipore membrane, and coated with gold. […] All photographs were taken at the same magnification. Scale bar, 1 μm.
(§2) E. coli (ATCC 20922) (5×10^5 cells) in 100 μL of 10 mM Phosphate Buffer, pH 7.0 containing mucocidin peptide concentration of 5, 10, 15, 20, or 50 μM was incubated for an hour. Then, it was diluted 200 fold with the same buffer and 300 μL aliquots (approx. 750 cells) were plated on 150 mm LB plate and grown overnight at 37° C. The grown colonies were counted. The cell viability was estimated by the percent of colony forming units. Staphylococcus aureus (ATCC 25923) and methicillin resistant Staphylococcus aureus (MRSA) (ATCC 700698) were incubated with mucocidin concentration up to 5 μM. Candida albicans (ATCC 10231) were incubated with mucocidin concentration levels up to 50 μM^44.
Bactericidal activity of various deletion peptides of mucocidin (PeptRon, Korea) was compared with the activity of Magainin II (23 mer) peptide (Table 1). […] Also first 15 residue peptide likely functions as propeptide and native peptide will likely have 31 residues.

E. coli [2] = test: Antimicrobial activity of isolated native salivary mucocidin; type: cell-based; details: data not shown
[3] = Bacteriocidal activity of salivary mucocidin fractions; type: cell-based; details: both Superose 12 peak fractions
Procedure: Thirty milliliters of parotid saliva from each volunteer was collected into the tube containing 1.0 ml of 0.25 M citrate buffer, pH 4.0 containing 0.02% NaN3. The 10 ml acidified saliva was adsorbed into SP-Sepharose column (2.4×6 ml) equilibrated with 0.025 M citrate buffer pH 4.0, the column was washed with 3 fold column volume each of the equilibrating buffer and the 0.05 M tris-acetate buffer pH 6.0 containing 1 mM EDTA. The mucocidin was eluted with the 0.05 M tris-acetate buffer, pH 6.0 containing 0.15 M NaCl. The eluted mucocidin containing fractions assayed by immunodot blot analysis were pooled and concentrated in Speed-vac centrifuge evaporation apparatus. Pooled mucocidin fractions were applied to Superose 12 column equilibrated with 0.02 M tris-acetate buffer pH 6.0. Two of the mucocidin peaks were detected first at 8 kDa molecular weight marker and next far beyond the column volume.

[4] = test system: methicillin-resistant Staphylococcus aureus (ATCC 700698); type: cell-based
Procedure: as §2

[5] = test system: Aspergellous niger (ATCC #16404); test: USP Antimicrobial Test; type: cell-based; details: three log dilution
Text: (§3) The mucocidin (Microtest Laboratories Test sample #05-03383) met the requirement of the USP Validation of Microbial Recovery.

[6] = test system: Candida albicans (ATCC #10231); test: USP Antimicrobial Test; type: cell-based; details: three log dilution
Text: as §3

E. coli (ATCC #8739) = test: USP Antimicrobial Test; type: cell-based; details: three log dilution
Text: as §3

[7] = test system: P. aeruginosa (ATCC #9027); test: USP Antimicrobial Test; type: cell-based; details: three log dilution
Text: as §3

S. aureus (ATCC #6538) = test: USP Antimicrobial Test; type: cell-based; details: three log dilution
Text: as §3

E. coli (ATCC25922) = type: cell-based; details: for decrease of colony forming unit (CFU) percentages: one hour incubation
Procedure: as §1, §2

[8] = test system: Candida albicans (ATCC 10231); type: cell-based
Procedure: as §2

Candida albicans = test: Scanning electron micrography of microbes treated with mucocidin; type: cell-based; details: 100 μM mucocidin; 10, 20 and 30 min
Procedure: as §1
(§4) Scanning Electron Micrographs were taken of E. coli, Staphylococcus aureus and Candida albicans incubated with 10, 40, 100 μM mucocidin, respectively for 10, 20 and 30 min, and they were immediately fixed with glutaraldehyde, dried on Millipore membrane, and coated with gold. […] All photographs were taken at the same magnification.
(§5) The primary growth of E. coli containing the mucocidin peptide was inhibited in a dose-dependent manner (FIG. 2B). […] To explore a possible mechanism of mucocidin elicited bactericidal activity, the progress of morphological alteration of microbes upon the treatment of mucocidin was determined by scanning electron Microscopy. E. coli, Staphylococcus aureus and Candida albicans (FIG. 2C) incubated with 10, 40, 100 μM mucocidin, respectively for various time periods, were immediately fixed, dried, and coated with gold. […]

E. coli [9] = test: as above; type: cell-based; details: 10 μM mucocidin; 10, 20 and 30 min
Procedure: as §1, §4, §5

Staphylococcus aureus = test: as above; type: cell-based; details: 40 μM mucocidin; 10, 20 and 30 min
Procedure: as §1, §4, §5

[10] = target: T1, guinea pig liver transglutaminase (UniProt P08587); test: Mucocidin as transglutaminase substrate, monodansylcadaverine incorporation; type: biochemical; details: 50 μM mucocidin, 10 μM MDC; 20, 40, 60, 120 min; with or without Ca++
T1 construct: using guinea pig liver transglutaminase (Sigma, St. Luois, Mo.); purchased Sigma; host or cells: guinea pig liver
T1 sequence (P08587 whole entry): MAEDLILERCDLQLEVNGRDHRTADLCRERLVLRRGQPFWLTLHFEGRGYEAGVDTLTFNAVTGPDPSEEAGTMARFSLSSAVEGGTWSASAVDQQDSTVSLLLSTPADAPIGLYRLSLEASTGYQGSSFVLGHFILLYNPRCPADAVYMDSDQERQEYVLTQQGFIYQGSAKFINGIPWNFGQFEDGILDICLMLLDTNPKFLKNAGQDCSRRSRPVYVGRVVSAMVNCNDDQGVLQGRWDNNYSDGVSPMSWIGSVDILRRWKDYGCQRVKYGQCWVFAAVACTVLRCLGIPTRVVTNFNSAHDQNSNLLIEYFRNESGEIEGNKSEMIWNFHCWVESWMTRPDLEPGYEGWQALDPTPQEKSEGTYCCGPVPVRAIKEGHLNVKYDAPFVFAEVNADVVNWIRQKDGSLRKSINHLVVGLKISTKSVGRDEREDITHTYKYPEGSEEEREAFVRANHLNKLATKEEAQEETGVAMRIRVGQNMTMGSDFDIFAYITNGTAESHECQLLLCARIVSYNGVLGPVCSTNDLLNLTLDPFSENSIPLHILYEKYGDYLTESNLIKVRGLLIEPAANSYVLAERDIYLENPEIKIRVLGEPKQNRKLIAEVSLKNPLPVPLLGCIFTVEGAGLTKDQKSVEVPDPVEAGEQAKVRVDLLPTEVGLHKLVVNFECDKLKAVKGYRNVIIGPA
Procedure: Mucocidin as a transglutaminase substrate was carried out by a slightly modified method of previously described^27 using guinea pig liver transglutaminase (Sigma, St. Luois, Mo.). Transglutaminase assay was carried out by adding 10 μl of enzyme (10 μg) into 90 μL of reaction mixture containing 0.05 M tris acetate buffer, pH 8.0,1 mM EDTA, 5 mM dithiothreitol, 10 mM CaCl2, 0.2% lubrol, and 10 μM of monodansylcadaverine (MDC)(Sigma) and mucocidin (50 μM). Ten μL aliquot of the reaction mixture was removed at 20, 40, 60 and 120 min and added into 500 μL volume of 1 mM EDTA solution to halt the enzyme reaction. Unreacted MDC in solution was extracted with n-hexane. The reacted mucocidin in aqueous solution was blotted on a cellulose nitrate membrane in a slot filtering apparatus (Bio Rad Lab) and washed once with 0.5 mL of water. Relative fluorescence was indicated as a measure of MDC incorporated mucocidin. The aliquots taken from each sample was analyzed on SDS-PAGE.
These immunological staining of the mucosal epithelium indicate that mucocidin is expressed in the outer layers of epithelium and the secreted peptide remains bound to the epithelial surface. […]

GIGKFLHSAKKFGKAFVGEIMNS [Magainin II, reference compound]
S. aureus (MBC, μM) ([1]; Table 1, deletion peptides): >3.0 µM

SRVLNRSLQVKVVKITN [Peptide 17-mer, SRVLNRSLQVKVVKITN]
S. aureus (MBC, μM) ([1]; ATCC 25923): >5.0 µM

M^1HDFWVLWVLLEYIYNSACSVLS^23 (MHDFWVLWVLLEYIYNSACSVLS; listed as Homo sapiens) [Peptide 23-mer-N, mucocidin residues 1-23]
bactericidal activity (in words) [1]: no activity

VSSRVLNRSLQVKVVKITN [Peptide 19-mer, VSSRVLNRSLQVKVVKITN]
S. aureus (MBC, μM) ([1]; ATCC 25923): >3.5 µM

EYIYNSACSVLSATSSVSSRVLNRSLQVKVVKITN [Peptide 35-mer]
S. aureus (MBC, μM) ([1]; ATCC 25923): >50.0 µM

isolated native salivary mucocidin: glycosylated native mucocidin isolated from human parotid saliva by ion exchange and Superose 12 chromatography (MHDFWVLWVLLEYIYNSACSVLSATSSVSSRVLNRSLQVKVVKITN; also: glycosylated, sites not given here)
antimicrobial activity against E. coli (E. coli [2]): retained antimicrobial activity
bacteriocidal activity [3]: bacteriocidal activity similar to mucocidin peptides

CC1(C)S[C@@H]2[C@H](NC(=O)[C@H](N)c3ccccc3)C(=O)N2[C@H]1C(=O)O [ampicillin, reference compound]
sensitivity of methicillin-resistant Staphylococcus aureus (in words) [4]: insensitive

VLNRSLQVKVVKITN [Peptide 15-mer, VLNRSLQVKVVKITN]
S. aureus (MBC, μM) ([1]; ATCC 25923): >20.0 µM

ATSSVSSRVLNRSLQVKVVKITN [Peptide 23-mer-C]
S. aureus (MBC, μM) ([1]; ATCC 25923): >10.0 µM
growth of the organism [5]: almost no growth
growth of the organism [6]: almost no growth
growth of the organism (E. coli (ATCC #8739)): almost no growth
growth of the organism [7]: almost no growth
growth of the organism (S. aureus (ATCC #6538)): almost no growth

MHDFWVLWVLLEYIYNSACSVLSATSSVSSRVLNRSLQVKVVKITN [Peptide 46-mer]
decrease of colony forming unit (CFU) percentages (E. coli (ATCC25922); 5 μM mucocidin): 20%
decrease of colony forming unit (CFU) percentages (E. coli (ATCC25922); 10 μM mucocidin): 40%
decrease of colony forming unit (CFU) percentages (E. coli (ATCC25922); 15 μM mucocidin): 50%
decrease of colony forming unit (CFU) percentages (E. coli (ATCC25922); 20 μM mucocidin): 60%
minimal bactericidal concentration (MBC) (E. coli (ATCC25922); ATCC25922): 40 ± 7.3 µM
S. aureus (MBC, μM) ([1]; ATCC 25923): >70.0 µM
minimal bactericidal concentration (MBC) ([1]; ATCC 25923): 3 ± 0.5 µM
sensitivity of primary growth of Staphylococcus aureus relative to E. coli ([1]; S. aureus versus E. coli): ten fold more sensitive
bactericidal activity (in words) [1]: good bactericidal activity
minimal bactericidal concentration (MBC) [8]: 80 ± 13.5 µM
minimal bactericidal concentration (MBC) [4]: 50 ± 10.9 µM
sensitivity of methicillin-resistant Staphylococcus aureus (in words) [4]: very sensitive to low concentrations
morphology of the microbe by SEM (Candida albicans): loss and shrinkage of original cell shapes
morphology of the microbe by SEM (E. coli [9]): loss and shrinkage of original cell shapes
morphology of the microbe by SEM (Staphylococcus aureus): loss and shrinkage of original cell shapes
time-dependent uptake of MDC into mucocidin [10]: detected only in the presence of Ca^++

SSVSSRVLNRSLQVKVVKITN [Peptide 21-mer]
S. aureus (MBC, μM) ([1]; ATCC 25923): >3.5 µM

From patent US7485619B2, “Antimicrobial agent” (priority 2005, dated 2009)
